Test results reported in PMC8234803, “In Vitro Metabolism of Six C-Glycosidic Flavonoids from Passiflora incarnata L” (International Journal of Molecular Sciences, 2021).
“Also recorded” adds a separate entry of the source.

Assays:
[1] = Stability testing in test buffer (HBSS pH 6.0) under assay conditions, HPLC-DAD; assay type: physicochemical; conditions: 10 µM in HBSS pH 6.0, 37 °C, 5% CO2; after 3 h of incubation
Protocol: To guarantee the stability of all test substances during the metabolism assay on Caco-2 cells, they were incubated in the test buffer under assay conditions. Test samples were collected each hour for 5 h and were measured via HPLC-DAD.
To ensure stability during the Caco-2 metabolism experiments, all test substances were dissolved in DMSO to a concentration of 20 mM and diluted to 10 µM in an appropriate volume of HBSS (pH 6.0), resulting in a DMSO concentration of less than 1%. The test solution (1 mL) was aliquoted into a 12-well Transwell® plate and incubated for 5 h in an atmosphere of 5% CO2 and 90% relative humidity at 37 °C. Test samples (100 µL) were collected after t = 0, 1, 2, 3, 4, and 5 h and measured via HPLC-DAD. The peak area of the test substance at time t = 0 h was defined as 100%, and all other peak areas were related to calculate the proportional stability. The stability was calculated as % = area/area0 × 100. Stability testing was performed on three independent days with freshly prepared solutions (n = 3).
The system consisted of the following: Elite LaChrom with an L2200 autosampler, L2130 pump, L2350 column oven, L2444 DAD, and EZChrom Elite 3.1.7 software (Hitachi, Tokyo, Japan); column: Kinetex® Biphenyl, 100 Å, 250-4.6 mm (5 µm, same material precolumn; Phenomenex, Torrance, CA, USA); injection volume 30 µL; oven temp.: 25 °C; autosampler temp.: 10 °C; detection wavelength: 340 nm; flow: 1.2 mL/min; A = H2O + 0.1% TFA, B = acetonitrile + 0.1% TFA; gradient: 0–2 min 10% B, 2–10 min 10% B → 100% B, 10–11 min 100% B → 10% B, 11–15 min 10% B.

Caco-2 cells = experiment: MTT assay under metabolic conditions (cell viability); assay type: cell-based, human; conditions: 10, 25, 50, 75, 100 µM in HBSS (pH 6.0), 5 h incubation
Protocol: All six substances were tested in five different dilutions in HBSS (pH 6.0). The determined viability values of O, IO, S, IS, V, and IV are listed in the Supplementary Materials (Figure S2).
Caco-2 cells in the logarithmic growth phase were seeded in 96-well plates at a density of 3 × 10^4 cells/well and incubated at 37 °C in an atmosphere of 5% CO2 and constant moisture in an incubator. After 24 h, the cell culture medium was removed, and 100 µL of HBSS solution (negative control), 0.5% DMSO in HBSS solution (solvent control), or flavonoid samples in HBSS solution (6 flavonoids at concentrations of 10, 25, 50, 75, and 100 µM) was applied in quintuplicate and incubated for 5 h. Afterwards, the HBSS solutions were removed and replaced with an MTT solution in DMEM (0.4 mg/mL) and incubated for another 3 h at 37 °C. Then, the MTT solution was discarded, and the cells were fixed with a 10% SDS solution in PBS and stored at room temperature in the dark. After 24 h, the absorbance was measured on a Tecan microplate reader (Tecan Trading AG, Switzerland) at 560 nm. The viability rate was calculated as % = A/A0 × 100, with A as the average absorbance value of the treatment and solvent control groups and A0 as the average absorbance value of the negative control group. The assay was performed three times in pentaplicate.
The human colon adenocarcinoma cell line Caco-2 was obtained from the ATCC (American Type Culture Collection, Manassas, VA, USA). The cell line was determined to be free of mycoplasma contamination by PCR and culture from GATC Biotech AG (Konstanz, Germany). The cells were cultured in DMEM supplemented with 10% (v/v) FBS, 1% (v/v) NEAA, and 1% (v/v) antibiotics (penicillin/streptomycin) in an atmosphere of 5% CO2 and 90% relative humidity at 37 °C. The culture medium was replaced every 3 days, and the cells were split 1:5 using trypsin-EDTA once 90% confluence was obtained.

Caco-2 cell monolayer = experiment: Caco-2 monolayer metabolism experiment, metabolites identified via UHPLC-DAD-MS(/MS); assay type: in vitro ADME, human; conditions: for Extent of metabolism (in words): 3 and 5 h; for Metabolites of the aglycones (cleavage of the C–C glycosidic bond): 100 µM approach; for Possible metabolite (phase II metabolite identified by MS/MS fragmentation and comparison with reference compound after enzymatic hydrolysis): glucuronidase/sulfatase cleavage, UHPLC-DAD-MS/MS; for Extent of phase I and II metabolism (in words): independent of incubation time and concentration
Protocol: To obtain information on the in vitro metabolism of the six tested C-glycosidic flavonoids in the intestine, experiments were carried out using the Caco-2 monolayer model (Figure 2). Metabolite profiles were characterized at two different concentrations (10 and 100 µM; n = 3) and after two different incubation times (3 or 5 h; n = 3) in order to determine the influence of concentration and time on the metabolism reactions that occurred. Furthermore, to analyze the distribution of the observed metabolites, samples were collected from the cell lysate and the apical and basolateral compartments. All samples of the metabolism experiments using the Caco-2 cell monolayer were analyzed using UHPLC-DAD-MS and UHPLC-DAD-MS/MS. Metabolites were identified by libraries that were prepared for each compound (Tables S1–S6). The O and IO libraries contained 67 metabolites (Tables S1 and S2), the S and IS libraries contained 106 metabolites (Tables S3 and S4), and the V and IV libraries contained 71 possible metabolites (Tables S5 and S6).
To form a confluent and differentiated monolayer, cells at passages 16–45 were seeded into the inserts of 12-well Transwell® plates at a density of 3.0 × 10^5 cells/cm^2. Afterwards, the culture medium was replaced every day, and the metabolism experiment was performed 21 days after seeding. The apical and basolateral compartments contained 0.5 and 1.5 mL of cell culture medium, respectively.
On day 21, the cell culture medium was removed from the apical and basolateral compartments, and the Caco-2 cell monolayer was washed two times with prewarmed HBSS. The Transwell® plates containing HBSS were incubated at 37 °C for 15 min to measure the transepithelial electrical resistance (TEER) value. The integrity of the cell monolayers was evaluated by TEER values between the apical and basolateral sides with the Evohm2 system (World Precision Instruments, Sarasota, FL, USA). The cell inserts were only used for the metabolism experiments if the resistance exceeded 350 Ω/cm^2. The six test substances were dissolved in DMSO to a stock solution of 20 mM. The HBSS was adjusted to pH 6.0 and 7.4 with 1 M HCl. Afterwards, the stock solutions were diluted to 10 or 100 µM in an appropriate volume of HBSS (pH 6.0) to obtain a DMSO concentration of <1%. The test solutions were added to the apical side (0.5 mL), while the basolateral side was filled with 1.5 mL of HBSS (pH 7.4). The Transwell® plates were incubated at 37 °C for 3 or 5 h, respectively. After this period, solutions from the apical and basolateral compartments were collected in separate tubes, washed twice with 500 µL of HBSS, and then collected again. The samples were lyophilized and stored at −20 °C until they were measured using UHPLC-DAD-MS. After the experiment, Transwell® inserts were apically (0.5 mL) and basolaterally (1.5 mL) filled with HBSS and warmed to 37 °C for 20 min. Then, the TEER values were measured to guarantee the integrity of the monolayer during the experiment. The experiment was performed in triplicate for each substance, concentration, and incubation time.
After the metabolism experiment, cell monolayers were washed twice with PBS and incubated with 200 µL of trypsin-EDTA for 10 min at 37 °C in an atmosphere of 5% CO2 and constant humidity in the incubator. The cells were removed from the well by pipetting up and down, and were collected in a tube. The well was washed twice with PBS (1 mL), and the wash solution was also collected in the corresponding tube. The mixture was centrifuged (1000× g rpm, 5 min), and the supernatant was discarded.

[2] = metabolite at RT 5.134 min, m/z 477.0674
[3] = metabolite at RT 5.476 min, m/z 461.0724
[4] = initial concentration 10 µM, 3 h, apical compartment
[5] = initial concentration 10 µM, 3 h, basolateral compartment
[6] = initial concentration 10 µM, 5 h, apical compartment
[7] = initial concentration 100 µM, 3 h, apical compartment
[8] = initial concentration 100 µM, 3 h, basolateral compartment
[9] = initial concentration 100 µM, 5 h, apical compartment
[10] = initial concentration 100 µM, 5 h, cell lysate

Compound: O=c1cc(-c2ccc(O)c(O)c2)oc2c([C@@H]3O[C@H](CO)[C@@H](O)[C@H](O)[C@H]3O)c(O)cc(O)c12 [O, orientin]
- Stability (content relative to t = 0 h) [1]: approximately 100%
- Effect on the viability of Caco-2 cells (in words) (Caco-2 cells): no significant effects at any concentration
- Extent of metabolism (in words) (Caco-2 cell monolayer; 10 µM): broader ranges of phase I and II metabolites
- Metabolites of the aglycones (cleavage of the C–C glycosidic bond) (Caco-2 cell monolayer): metabolites of the corresponding aglycones apigenin and luteolin were also detected
- Extent of metabolism (in words) (Caco-2 cell monolayer; 100 µM): extensive metabolism
- Possible metabolite (phase II metabolite identified by MS/MS fragmentation and comparison with reference compound after enzymatic hydrolysis) (Caco-2 cell monolayer; metabolite at RT 3.146 min, m/z 527.0499): O-sulfate
- Possible metabolite (phase II metabolite identified by MS/MS fragmentation and comparison with reference compound after enzymatic hydrolysis) (Caco-2 cell monolayer; [2]): Quercetin-glucuronide
- Possible metabolite (phase II metabolite identified by MS/MS fragmentation and comparison with reference compound after enzymatic hydrolysis) (Caco-2 cell monolayer; [3]): Luteolin-glucuronide
- Extent of phase I and II metabolism (in words) (Caco-2 cell monolayer): highly metabolized in phase I and II reactions
- Possible metabolite detected (Caco-2 cell monolayer; [4]): Orientin-sulfate; also recorded: Hydroxy-methoxy-orientin
- Possible metabolite detected (Caco-2 cell monolayer; [5]): Orientin-sulfate; also recorded: Hydroxy-methoxy-orientin
- Possible metabolite detected (Caco-2 cell monolayer; [6]): Orientin-sulfate; also recorded: Methoxy-orientin
- Possible metabolite detected (Caco-2 cell monolayer; [7]): Orientin-sulfate; also recorded: Hydroxy-luteolin-glucuronide; also recorded: Methoxy-luteolin; also recorded: Hydroxy-methoxy-orientin
- Possible metabolite detected (Caco-2 cell monolayer; [8]): Orientin-sulfate
- Possible metabolite detected (Caco-2 cell monolayer; [9]): Orientin-sulfate; also recorded: Hydroxy-luteolin-glucuronide; also recorded: Hydroxy-methoxy-orientin
- Possible metabolite detected (Caco-2 cell monolayer; [10]): Methoxy-orientin

Compound: O=c1cc(-c2ccc(O)c(O)c2)oc2cc(O)c([C@@H]3O[C@H](CO)[C@@H](O)[C@H](O)[C@H]3O)c(O)c12 [IO, isoorientin]
- Stability (content relative to t = 0 h) [1]: approximately 100%
- Effect on the viability of Caco-2 cells (in words) (Caco-2 cells): no significant effects at any concentration
- Extent of metabolism (in words) (Caco-2 cell monolayer; 10 µM): broader ranges of phase I and II metabolites
- Metabolites of the aglycones (cleavage of the C–C glycosidic bond) (Caco-2 cell monolayer): metabolites of the corresponding aglycones apigenin and luteolin were also detected
- Extent of metabolism (in words) (Caco-2 cell monolayer; 100 µM): extensive metabolism
- Possible metabolite (phase II metabolite identified by MS/MS fragmentation and comparison with reference compound after enzymatic hydrolysis) (Caco-2 cell monolayer; metabolite at RT 2.514 5.107 min, m/z 527.0501): IO-sulfate
- Possible metabolite (phase II metabolite identified by MS/MS fragmentation and comparison with reference compound after enzymatic hydrolysis) (Caco-2 cell monolayer; [2]): Quercetin-glucuronide
- Possible metabolite (phase II metabolite identified by MS/MS fragmentation and comparison with reference compound after enzymatic hydrolysis) (Caco-2 cell monolayer; [3]): Luteolin-glucuronide
- Extent of phase I and II metabolism (in words) (Caco-2 cell monolayer): highly metabolized in phase I and II reactions
- Possible metabolite detected (Caco-2 cell monolayer; [4]): Isoorientin-sulfate; also recorded: Hydroxy-luteolin-glucuronide; also recorded: Hydroxy-methoxy-isoorientin
- Possible metabolite detected (Caco-2 cell monolayer; [5]): Isoorientin-sulfate; also recorded: Hydroxy-methoxy-isoorientin
- Possible metabolite detected (Caco-2 cell monolayer; [6]): Isoorientin-sulfate; also recorded: Hydroxy-methoxy-isoorientin
- Possible metabolite detected (Caco-2 cell monolayer; [7]): Methoxy-isoorientin-sulfate; also recorded: Hydroxy-luteolin-glucuronide; also recorded: Methoxy-luteolin; also recorded: Hydroxy-methoxy-isoorientin
- Possible metabolite detected (Caco-2 cell monolayer; [8]): Isoorientin-sulfate; also recorded: Hydroxy-methoxy-isoorientin
- Possible metabolite detected (Caco-2 cell monolayer; initial concentration 100 µM, 3 h, cell lysate): Isoorientin-sulfate; also recorded: Methoxy-isoorientin
- Possible metabolite detected (Caco-2 cell monolayer; [9]): Hydroxy-isoorientin; also recorded: Methoxy-isoorientin-sulfate; also recorded: Hydroxy-luteolin-glucuronide
- Possible metabolite detected (Caco-2 cell monolayer; initial concentration 100 µM, 5 h, basolateral compartment): Isoorientin-sulfate
- Possible metabolite detected (Caco-2 cell monolayer; [10]): Isoorientin-sulfate; also recorded: Methoxy-isoorientin
